Experimental data as given in the OligoGym collection.
Oligonucleotides are given in HELM: sugar(base)linkage, 5' to 3'; d 2'-deoxyribose, r ribose, m 2'-O-methylribose, p phosphate. ss, as = sense and antisense strand

target: TMEM63B; experiment: reporter assay of Huesken 2005; conditions: siRNA
Further: test concentration or dose not given here.

Point of comparison: “RNA1{r(U)p.r(G)p.r(G)p.r(U)p.r(G)p.r(C)p.r(U)p.r(U)p.r(C)p.r(U)p.r(C)p.r(G)p.r(G)p.r(C)p.r(C)p.r(C)p.r(U)p.r(C)p.r(C)p.d(T)p.d(T)}|RNA2{r(G)p.r(G)p.r(A)p.r(G)p.r(G)p.r(G)p.r(C)p.r(C)p.r(G)p.r(A)p.r(G)p.r(A)p.r(A)p.r(G)p.r(C)p.r(A)p.r(C)p.r(C)p.r(A)p.d(C)p.d(A)}$$$RNA1{StrandType:ss}|RNA2{StrandType:as}$”, normalised inhibition (eCFP-eYFP dual reporter) 65.1%. Against it:
- RNA1{r(U)p.r(G)p.r(A)p.r(C)p.r(C)p.r(A)p.r(A)p.r(A)p.r(G)p.r(G)p.r(G)p.r(A)p.r(C)p.r(A)p.r(A)p.r(U)p.r(G)p.r(G)p.r(U)p.d(T)p.d(T)}|RNA2{r(A)p.r(C)p.r(C)p.r(A)p.r(U)p.r(U)p.r(G)p.r(U)p.r(C)p.r(C)p.r(C)p.r(U)p.r(U)p.r(U)p.r(G)p.r(G)p.r(U)p.r(C)p.r(A)p.d(A)p.d(A)}$$$RNA1{StrandType:ss}|RNA2{StrandType:as}$ — higher, 70.9%
- RNA1{r(C)p.r(A)p.r(U)p.r(G)p.r(A)p.r(C)p.r(C)p.r(U)p.r(A)p.r(C)p.r(A)p.r(G)p.r(U)p.r(A)p.r(U)p.r(C)p.r(A)p.r(C)p.r(C)p.d(T)p.d(T)}|RNA2{r(G)p.r(G)p.r(U)p.r(G)p.r(A)p.r(U)p.r(A)p.r(C)p.r(U)p.r(G)p.r(U)p.r(A)p.r(G)p.r(G)p.r(U)p.r(C)p.r(A)p.r(U)p.r(G)p.d(A)p.d(C)}$$$RNA1{StrandType:ss}|RNA2{StrandType:as}$ — lower, 58.9%
- RNA1{r(A)p.r(G)p.r(C)p.r(U)p.r(C)p.r(A)p.r(G)p.r(G)p.r(G)p.r(G)p.r(A)p.r(U)p.r(G)p.r(A)p.r(G)p.r(C)p.r(C)p.r(C)p.r(C)p.d(T)p.d(T)}|RNA2{r(G)p.r(G)p.r(G)p.r(G)p.r(C)p.r(U)p.r(C)p.r(A)p.r(U)p.r(C)p.r(C)p.r(C)p.r(C)p.r(U)p.r(G)p.r(A)p.r(G)p.r(C)p.r(U)p.d(C)p.d(C)}$$$RNA1{StrandType:ss}|RNA2{StrandType:as}$ — lower, 43%
- RNA1{r(U)p.r(G)p.r(C)p.r(A)p.r(C)p.r(A)p.r(A)p.r(G)p.r(U)p.r(G)p.r(C)p.r(U)p.r(A)p.r(C)p.r(A)p.r(C)p.r(U)p.r(U)p.r(U)p.d(T)p.d(T)}|RNA2{r(A)p.r(A)p.r(A)p.r(G)p.r(U)p.r(G)p.r(U)p.r(A)p.r(G)p.r(C)p.r(A)p.r(C)p.r(U)p.r(U)p.r(G)p.r(U)p.r(G)p.r(C)p.r(A)p.d(T)p.d(G)}$$$RNA1{StrandType:ss}|RNA2{StrandType:as}$ — higher, 99.1%
- RNA1{r(G)p.r(C)p.r(G)p.r(A)p.r(A)p.r(A)p.r(U)p.r(A)p.r(C)p.r(A)p.r(U)p.r(C)p.r(G)p.r(C)p.r(U)p.r(C)p.r(A)p.r(G)p.r(G)p.d(T)p.d(T)}|RNA2{r(C)p.r(C)p.r(U)p.r(G)p.r(A)p.r(G)p.r(C)p.r(G)p.r(A)p.r(U)p.r(G)p.r(U)p.r(A)p.r(U)p.r(U)p.r(U)p.r(C)p.r(G)p.r(C)p.d(A)p.d(G)}$$$RNA1{StrandType:ss}|RNA2{StrandType:as}$ — lower, 40.2%
- RNA1{r(A)p.r(A)p.r(G)p.r(A)p.r(U)p.r(C)p.r(A)p.r(A)p.r(G)p.r(A)p.r(A)p.r(G)p.r(C)p.r(A)p.r(U)p.r(U)p.r(U)p.r(U)p.r(G)p.d(T)p.d(T)}|RNA2{r(C)p.r(A)p.r(A)p.r(A)p.r(A)p.r(U)p.r(G)p.r(C)p.r(U)p.r(U)p.r(C)p.r(U)p.r(U)p.r(G)p.r(A)p.r(U)p.r(C)p.r(U)p.r(U)p.d(T)p.d(T)}$$$RNA1{StrandType:ss}|RNA2{StrandType:as}$ — lower, 61.7%
- RNA1{r(C)p.r(U)p.r(G)p.r(C)p.r(C)p.r(G)p.r(G)p.r(C)p.r(C)p.r(A)p.r(A)p.r(G)p.r(C)p.r(U)p.r(G)p.r(G)p.r(A)p.r(C)p.r(A)p.d(T)p.d(T)}|RNA2{r(U)p.r(G)p.r(U)p.r(C)p.r(C)p.r(A)p.r(G)p.r(C)p.r(U)p.r(U)p.r(G)p.r(G)p.r(C)p.r(C)p.r(G)p.r(G)p.r(C)p.r(A)p.r(G)p.d(G)p.d(T)}$$$RNA1{StrandType:ss}|RNA2{StrandType:as}$ — higher, 65.2%
